Laboratory results: patent US20090247495A1, “CU[…] AND USES THEREOF” (priority 2007, published 2009)
“Also recorded” adds a separate entry of the source.

Experiments:
K562 cells = assay: Flow cytometry for cell cycle analysis, K562; type: cell-based, human; details: 80 nM, 48 hours, serum starved 24 hours
Procedure: K562 cells were serum starved for 24 hours prior to cucurbitacin B treatment. After 48 hours of treatment, the cells were collected and rinsed twice with phosphate-buffer saline and fixed with 80% ice-cold ethanol for […]. Then, the cells were stained with propidium iodine at 1 mg/ml for 15 minutes at room temperature. The stained cells were analyzed by flow cytometry (FACS Calibur BD Flow Cytometer) • 6.1.6 Western Blot Analysis
Appropriate numbers of cell density were serum starved for 24 hours prior to treatment with different doses of cucurbitacin B for 2 days. The cell cycle analysis profile of K562 cells after cucurbitacin B treatment were detected using Flow Cytometry analysis after fixed with 80% ice-cold ethanol at 4° C. and then stained with PI for 15 minutes.

Stat3 = assay: Western blot of Stat3 activation in K562 cells; type: cell-based, human; details: 50 μM
Procedure: K562 leukemia cells were serum starved for 18 hours prior to cucurbitacin B treatment. The cells were incubated at a 75-mm culture flask filled with 10 ml growth medium (RPMI with 10% FBS and 1% PS) at the cell density of 1×10^5 cells/ml in the presence or absence of cucurbitacin B for various time intervals. The drug treatment were terminated by centrifugation at 1500 rpm for 5 minutes and the cells were rinsed twice with phosphate-buffered saline and lysed at 4° C. in a lysis buffer containing 50 mM Tris-HCl, pH7.5, […], 5 mM EDTA, 40 mM NaP2O7, 1% Triton X-100, 1 mM dithiothreitol, 200 μM Na3VO4, 100 μM phenylmethysufonyl fluoride, 2 μg/ml leupeptin, 4 μg/ml aprotinin and 0.7 μg/ml pepstatin. The insoluble protein lysate were removed by centrifugation for 10 minutes at 13000 rpm. Fifteen micrograms of protein lysate was resolved using SDS-polyacryamide gel electrophoresis (PAGE) (usually 8%-12% polyacrylamide gel) and then subjected to western blot anaylsis. Western blots were performed with antibodies specific for phosphorylated and total Stat3, c-Raf, Mek, and Erk. The blots were developed with the Enhanced Chemiluminescence Plus (ECL Plus) detection system (Amersham). • 6.1.7 GTPase Pull-Down Assay
15 μg cell lysate of each sample was separated in 8% SDS-PAGE followed by immuno-blotting with anti-Stat3 antibodies to detect the phosphorylated form of Stat3 as well as its total expression level.
Cells were serum starved for 18 hours followed by treated with 50 μM cucurbitacin B for 10 minutes, 30 minutes, 1 hour and 4 hours, respectively. 15 μg cell lysate of each sample was separated in 8% SDS-PAGE followed by immuno-blotting with anti-Stat3 antibodies to detect the phosphorylated form of Stat3 as well as its total expression level.

HepG2 = assay: Hollow fiber assay, HepG2; type: in vivo, nude mice; details: 0.2 mg/kg, i.p., s.c. and p.o., up to 14 days
Procedure: The hollow fiber assay (HFA) was developed by the NCI as a high-throughput, preliminary in vivo screening assay for the evaluation of anti-cancer agents. Human liver cancer cell lines HepG2 and HepG2-resistant (HepG2-R) were in vitro cultured inside hollow fibers for a short term (48 hours), followed by in vivo implantation at s.c. sites of the nude mice. Mice were treated with negative control (0.5% CMC), positive control (10 mg/kg 5-Fluorouracil) and cucurbitacin B (0.2 mg/kg) for up to 14 days. Then the fibers were excised and analyzed for cell viability by MTT assay. The efficacies of cucurbitacin B against HepG2 and HepG2-R were expressed as the percentage of the results obtained in the negative control group.

Prostate cancer = assay: SRB growth inhibition, prostate cancer lines of the NCI panel; type: cell-based; details: Homo sapiens, 48 hours
Description: Human cancer cell lines from the 59-NCI Cancer Cell Line Panel including leukemia, melanoma and cancers of breast, brain, colon, lung, ovary, prostate and kidney, were purchased from the National Institute of Cancer (USA). The growth inhibition (GI50) of these cell lines treated with cucurbitacin B and cucurbitacin D in various concentrations was investigated.
59 human cancer cell lines were maintained in RPMI 1640 (Invitrogen Life Technologies, CA, USA) supplemented with 5% Fetal Bovine Serum, 2 mM L-glutamine and 1% Penicillin/Streptomycin (Invitrogen Life Technologies) at 37° C. with 5% CO2. All chemicals were purchased from Sigma (St. Louis, Mo., USA) unless specified otherwise.
Sulforhodamine B (SRB) assay was applied to determine the cytostatic effect of cucurbitacin B and cucurbitacin D. SRB is a dye that binds to cellular proteins and will be dissolved in base. The biomass of total protein can be measured at 520 nm using a plate reader.
Cells were inoculated into 96-well microtiter plates including “Time zero” (Tz) plates in 100 μl at cell concentrations from 5000 to 40,000 cells per well according to NCI guideline. The cells were incubated at 37° C. with 5% CO2 for 24 hours. […] Bound SRB was solubilized with 100-200 ul per well of 10 mM trizma base and absorbance was measured at a wavelength of 520 nm. The percentage of growth inhibition was calculated as follows: […]

[1] = test system: human pancreatic cancer cell line SW; assay: MTT cell cytotoxicity assay, SW pancreatic cancer cell line; type: cell-based; details: 48 hours
Procedure: A human pancreatic cancer cell line SW was purchased from Institute of Biochemistry and Cell Biology, Shanghai Institutes for Biological Sciences, Chinese Academy of Sciences (SIBCB, CAS, China). SW cell was grown in RPMI 1640 medium supplemented with 10% FBS and maintained in a humidified 5% CO2 atmosphere at 37° C. and the culture medium was changed once in 2 days.
The cytotoxic effect of CuB on SW cell was determined using MTT (3-[4,5-dimethylthiazol-2-yl]-2,5-diphenyl tetrazolium bromide) labeled cell cytotoxicity assay. A total of 1×10^4 cells were seeded into a 96-well plate for 24 hours prior to cucurbitacin B (CuB) treatment. They were then treated with different dosages of CuB for 48 hours. After the treatment, 20 μl of MTT (5 mg/ml) was added to each well and incubated for 4 hrs. Then the medium was discarded and 100 μl of dimethyl sulfoxide was added. The absorbance at 570 nm was then measured by FLUOstar OPTIMA equipment (BMG, LABTECH GmbH, Germany). The percentage of inhibition against different dosages of CuB were plotted using the Prism software and the 50% inhibition concentration (IC50) were obtained.

Q: With CC(=O)OC(C)(C)/C=C/C(=O)[C@](C)(O)C1[C@H](O)C[C@@]2(C)C3CC=C4C(C[C@H](O)C(=O)C4(C)C)[C@]3(C)C(=O)C[C@]12C (stereo partly shown) [cucurbitacin B] as the molecule, how does the “percentage in the G2/M phase” value (K562 cells) read?
A: The value was 70%.

Q: What about the “inhibition on Stat3 activation” value (Stat3; 10 minutes to 30 minutes) of the same molecule?
A: The value was “No significant change”.

Q: And the “inhibition effect on Stat3 activation” value (Stat3; 1 hour to 4 hours)?
A: Its value is “gradually increased at 1 hours and peak at 4 hours; also recorded: inhibited Stat3 phosphorylation”.

Q: What about the “Stat3 activation (phosphorylated Stat3)” value (Stat3; 4 hours) of the same molecule?
A: Its value is “significant inhibited”.

Q: And the “cell growth in hollow fibers” value (HepG2)?
A: Its value is “potently inhibited”.

Q: What about the GI50 (Prostate cancer) of the same molecule?
A: The GI50 was 17 nM.

Q: What about the IC50 [1] of the same molecule?
A: Its IC50 is roughly 274 nM.
